According to patent US20210052600A1, “THERAPEUTIC AGENTS FOR STRESS URINARY INCONTINENCE AND INCOTINENCE OF FECES” (Takeda Pharmaceutical Company Limited, priority 2017, published 2021):

Assay: Body weight of obese rats (DIO-F344) under continuous subcutaneous administration and effective plasma concentration
Type: in vivo, rat
Details: for Change in body weight (% change): mean ± SEM
Description: Forty male DIO-F344 rats bred with high fat diet (42 kcal % fat) were used. On the day before surgery, the rats were grouped on the basis of their body weight. Compound A′ and Compound B′ were each dissolved in saline. Osmotic pumps filled with the Compound A′ or Compound B′ solution were subcutaneously implanted in the rats under isoflurane anesthesia. The body weight just after surgery was used as a Pre value, and the body weight was measured every day until 14 days after surgery. Regarding the averages in the body weight on Day 14, the difference in the mean averages of the drug-treated group and the vehicle-treated group was analyzed by the one-tailed Williams' test.
The average Day 14 plasma concentration from the values of each rat measured in the morning and afternoon was used as a plasma concentration for the animal. The rate of change in body weight was calculated from the values measured just after and 14 days after osmotic pump implantation. The rate (average rate) of change of the vehicle group was subtracted from that of each drug-administered rat to plot the plasma concentration and the change in body weight. The plasma concentration at which the drug lowered the body weight by 3.8% was calculated by linear regression analysis.

CC(C)N(C)c1cnc2c(n1)OCCNC2.Cl [Compound A′, N-methyl-N-(1-methylethyl)-6,7,8,9-tetrahydropyrazino[2,3-f][1,4]oxazeine-3-amine]
Change in body weight (% change) (1.35 mg/animal/day s.c. osmotic pump, day 3): −1.5 ± 0.5 % change | Change in body weight (% change) (1.35 mg/animal/day s.c. osmotic pump, day 7): −2.3 ± 0.8 % change | Change in body weight (% change) (1.35 mg/animal/day s.c. osmotic pump, day 10): −4.5 ± 0.8 % change | Change in body weight (% change) (1.35 mg/animal/day s.c. osmotic pump, day 14): −4.7 ± 0.8 % change | Change in body weight (% change) (4.5 mg/animal/day s.c. osmotic pump, day 3): −0.6 ± 0.2 % change | Change in body weight (% change) (4.5 mg/animal/day s.c. osmotic pump, day 7): −2.4 ± 0.4 % change | Change in body weight (% change) (4.5 mg/animal/day s.c. osmotic pump, day 10): −3.9 ± 0.4 % change | Change in body weight (% change) (4.5 mg/animal/day s.c. osmotic pump, day 14): −4.6 ± 0.6 % change | Change in body weight (% change) (13.5 mg/animal/day s.c. osmotic pump, day 3): −2.7 ± 0.2 % change | Change in body weight (% change) (13.5 mg/animal/day s.c. osmotic pump, day 7): −4.8 ± 0.3 % change | Change in body weight (% change) (13.5 mg/animal/day s.c. osmotic pump, day 10): −6.9 ± 0.5 % change | Change in body weight (% change) (13.5 mg/animal/day s.c. osmotic pump, day 14): −7.8 ± 0.5 % change | plasma concentration at which the drug lowered the body weight by 3.8% (DIO-F344 rats, day 14, vehicle-subtracted, linear regression analysis): 670 ng/mL
